Assay results taken from patent US20050118226A1, “Methods for treating ACAT-related diseases” (priority 2003, published 2005).

System: ACAT
Experiment: Cholesterol determinations in hAPP mice treated two months with CP-113,818 pellets
Type: in vivo, mouse
Conditions: 7.2 mg/kg/day, 57 days
Source text: hAPP transgenic mice overexpress human APP751 with the London (V717I) and Swedish (K670M/N671L) mutations under the regulatory control of the neuron specific murine (m)Thy-1 promoter (mThy-1-hAPP751; heterozygous with respect to the transgene, on a C57BL/6 F3 background) (Rockenstein et al., 2001). The hAPP colony was sustained by crossing transgenic APP751 with C57BL/6 (Harlan Winkelman, Germany). Corresponding littermates were used for control studies. All mice were housed according to standard animal care protocols, fed ad libitum with standard chow diet, and maintained in a pathogen-free environment in single ventilated cages at JSW Research. The transgenic status of each animal was confirmed by real time PCR of tail snips using specific primers and the appropriate hybridization probe. A modified Irvine test was regularly performed prior to the experiment to assess the neurological status of the animals; those showing disturbances were excluded from the experiments. Mice were then randomly assigned to different treatment groups and individually coded. Investigators performing behavioral testing, biochemical analyzes and histomorphological evaluations of the brains were blinded in terms of group allocation of the mice. […]
Animals were sacrificed the day after the last MWM training, on day 57 of treatment. […] Hematoxylin and eosin stained 6-8 um sections were analyzed for evidence of CP-113,818 toxicity.
Tissues were homogenized in the presence of trypsin (10 mg/ml) in a Dounce homogenizer on ice. Protein concentration of the homogenate was determined using the BCA protein assay kit (Pierce). […] Dried lipid pellets were dissolved in water and total amount of cholesterol was determined with an enzymatic assay (Sigma; cat. no. 402-20). As control, free cholesterol was determined with a different enzymatic assay (R-Biopharm GmbH, Darmstadt, Germany; cat. no. E0139050). The amount of cholesteryl-esters was calculated by subtracting free from total cholesterol. […]

SMILES: CCCCCCCC[C@H](SCCCCCC)C(=O)Nc1c(SC)cc(C)nc1SC [CP-113,818]
- decrease of liver cholesterol: 34%
- decrease of liver cholesteryl-esters: 87%
- decrease of serum cholesterol: 35%
